The experiment deals with ALP in normal human articular chondrocytes (NHACs). The experiment is described as follows: Alkaline Phosphatase (ALP) activity assay (staining and quantitation) in NHACs, prevention of chondrocyte hypertrophy. It is filed as cell-based. The conditions noted are these: human IL-1 beta 10 ng/mL, 12 days; for IC50: Fast Blue RR staining, high content imaging, read-out: ALP in NHAC IC50; for Emax: read-out: ALP in NHAC (% Efficacy). In outline: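 Primary human articular chondrocytes plated at 7,500 cells/well in DMEM with 10% FBS alongside test compound, incubated 5 h at 37 °C, then given IL-1β (10 ng/mL final) for 12 days. Fixed cells stained for ALP with Fast Blue RR/naphthol AS-MX, Hoechst counterstain. Read by fluorescence imaging (561 nm) and/or high-content cell scoring.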

[1] abbreviates: Chondrocyte, 288 h, value in parentheses.

These results are taken from patent US12257243B2, “5-hydroxy-7-oxabicyclo[2.2.1]heptane-2-carboxamide derivatives for inducing chondrogenesis for treating joint damage” (NOVARTIS AG, priority 2018, dated 2025).

Read-outs that look alike come from different tables or passages of the source.

Broadly, the IC50 is the concentration that gives 50% inhibition. As to `Cc1cc(NC(=O)[C@@H]2[C@@H](c3cc(C(F)(F)F)nn3C)[C@H]3O[C@@H]2C[C@@H]3O)cc(C(F)(F)F)c1` (racemic) [Example 71, rac-(1R,2R,3S,4R,5S)-5-hydroxy-3-(1-methyl-3-(trifluoromethyl)-1H-pyrazol-5-yl)-N-(3-methyl-5-(trifluoromethyl)phenyl)-7-oxabicyclo[2.2.1]heptane-2-carboxamide], the IC50 (Chondrocyte, 288 h) was > 30 µM. In addition, the Emax under setting [1] came to 29%.
Turning to `Cn1cc([C@H]2[C@H]3O[C@H](C[C@@H]3O)[C@@H]2C(=O)Nc2cccc(C(F)(F)F)c2)c(C(F)(F)F)n1` (single isomer, unassigned) [Example 32b, (1R,2R,3S,4R,5S)-5-hydroxy-3-(1-methyl-3-(trifluoromethyl)-1H-pyrazol-4-yl)-N-(3-(trifluoromethyl)phenyl)-7-oxabicyclo[2.2.1]heptane-2-carboxamide or (1S,2S,3R,4S,5R)-5-hydroxy-3-(1-methyl-3-(trifluoromethyl)-1H-pyrazol-4-yl)-N-(3-(trifluoromethyl)phenyl)-7-oxabicyclo[2.2.1]heptane-2-carboxamide], the IC50 came out at 16 µM. Also, the “ALP in NHAC (% Efficacy)” value (value in parentheses) amounted to 109%.
Turning to `Cn1cc([C@H]2[C@H]3O[C@H](C[C@@H]3O)[C@@H]2C(=O)Nc2cccc(C(F)(F)F)c2)c(C(F)(F)F)n1` (racemic) [Example 32, rac-(1R,2R,3S,4R,5S)-5-hydroxy-3-(1-methyl-3-(trifluoromethyl)-1H-pyrazol-4-yl)-N-(3-(trifluoromethyl)phenyl)-7-oxabicyclo[2.2.1]heptane-2-carboxamide], the IC50 (Chondrocyte, 288 h) was 7.2 µM. Besides, the Emax under setting [1] is 78%.
